ChEMBL document CHEMBL1201862, “PubChem BioAssay data set” (2004)
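Test compounds were applied to cells in 96-well plates for 48 hours at 5 doses. Here, GI50 denotes the concentration required for 50% inhibition of growth.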 The source made the active and inactive calls. Rule as the data show it: active = GI50 up to about 1.1 µM and inactive = higher.

Key:
Experiment in all cases: growth of human tumour cells (NCI), 48 h
RXF 393 = system: RXF 393
786-0 = system: 786-0
HCC 2998 = system: HCC 2998
CCRF-CEM = system: CCRF-CEM
NCI-H226 = system: NCI-H226
HOP-92 = system: HOP-92
SW-620 = system: SW-620
OVCAR-5 = system: OVCAR-5
SF-268 = system: SF-268
MCF7 = system: MCF7
SK-MEL-28 = system: SK-MEL-28
LOX IMVI = system: LOX IMVI
NCI-H23 = system: NCI-H23
NCI-H460 = system: NCI-H460
IGROV-1 = system: IGROV-1
SK-OV-3 = system: SK-OV-3
Malme-3M = system: Malme-3M
NCI/ADR-RES = system: NCI/ADR-RES
SN12C = system: SN12C
T47D = system: T47D

Measured: GI50

COc1cc2c(c(OC)c1OC)C(=O)NCCC2
inactive: RXF 393 > 100 µM | 786-0 > 100 µM | HCC 2998 > 92.9 µM | CCRF-CEM > 100 µM | NCI-H226 > 100 µM | HOP-92 > 100 µM | SW-620 > 100 µM | OVCAR-5 > 100 µM | SF-268 > 100 µM | MCF7 > 100 µM | SK-MEL-28 > 100 µM | LOX IMVI > 100 µM | NCI-H23 > 100 µM | NCI-H460 > 100 µM | IGROV-1 > 100 µM | SK-OV-3 > 100 µM | Malme-3M > 100 µM | NCI/ADR-RES > 100 µM | SN12C > 100 µM

COc1ccc(OC2(c3cc(OC)ccc3OC)OC(=O)c3ccccc32)cc1 (stereo not given)
inactive: RXF 393 > 100 µM | 786-0 > 100 µM | HCC 2998 > 100 µM | CCRF-CEM > 100 µM | NCI-H226 > 100 µM | HOP-92 > 100 µM | SW-620 > 100 µM | OVCAR-5 > 100 µM | SF-268 > 100 µM | SK-MEL-28 > 100 µM | LOX IMVI > 100 µM | NCI-H23 > 100 µM | NCI-H460 > 100 µM | IGROV-1 > 100 µM | SK-OV-3 > 100 µM | Malme-3M > 100 µM | SN12C > 100 µM

O=S1(=O)OCCCOS(=O)(=O)C1(Br)Br
inactive: RXF 393 > 100 µM | 786-0 > 100 µM | CCRF-CEM > 100 µM | NCI-H226 > 100 µM | SW-620 > 100 µM | OVCAR-5 > 100 µM | SF-268 > 100 µM | MCF7 > 100 µM | SK-MEL-28 > 100 µM | LOX IMVI > 100 µM | T47D > 100 µM | NCI-H23 > 100 µM | SK-OV-3 > 100 µM | Malme-3M > 100 µM | NCI/ADR-RES > 100 µM | SN12C > 100 µM

CC12CC(c3ccccc3O1)C(C(=O)Nc1ccc(Cl)cc1Cl)C(=O)N2 (stereo not given)
inactive: 786-0 19.7 µM | HCC 2998 49.1 µM | CCRF-CEM 15 µM | SW-620 24.8 µM | OVCAR-5 29.6 µM | SF-268 33.8 µM | MCF7 > 100 µM | SK-MEL-28 72.8 µM | LOX IMVI 22.5 µM | T47D 20.3 µM | NCI-H23 25.9 µM | NCI-H460 31.6 µM | IGROV-1 24.2 µM | SK-OV-3 73.8 µM | Malme-3M 39 µM | NCI/ADR-RES 36.8 µM

CCCCCCCCCCCCOCC1(COCCCCCCCCCCCC)COC(c2ccc(N)cc2)OC1
inactive: 786-0 > 100 µM | HCC 2998 > 100 µM | NCI-H226 > 100 µM | SW-620 > 100 µM | OVCAR-5 > 100 µM | SF-268 > 100 µM | MCF7 > 100 µM | SK-MEL-28 > 100 µM | LOX IMVI > 100 µM | T47D > 100 µM | NCI-H23 > 100 µM | NCI-H460 > 10 µM | IGROV-1 > 100 µM | SK-OV-3 > 100 µM | Malme-3M > 100 µM | NCI/ADR-RES > 100 µM | SN12C > 100 µM

CN(C)CCN1C(=O)N(CCN(C)C)c2c3cc(O)ccc3nc3c([N+](=O)[O-])ccc1c23
inactive: 786-0 6.62 µM | HCC 2998 8.73 µM | NCI-H226 12.6 µM | HOP-92 15.3 µM | SW-620 4.92 µM | SF-268 8.47 µM | SK-MEL-28 25.3 µM | LOX IMVI 10.7 µM | T47D 18.4 µM | NCI-H23 17.2 µM | NCI-H460 3.63 µM | IGROV-1 2.81 µM | Malme-3M 15.8 µM | NCI/ADR-RES 19.4 µM | SN12C 9.2 µM
active: CCRF-CEM 0.538 µM

COc1ccc(OC)c(NCC(=O)Nn2cnc3ccc(S(=O)(=O)Nc4cc(OC)ccc4OC)cc3c2=O)c1
inactive: 786-0 > 100 µM | HCC 2998 37.2 µM | CCRF-CEM 35.5 µM | NCI-H226 > 100 µM | HOP-92 > 100 µM | SW-620 > 100 µM | OVCAR-5 > 100 µM | SF-268 > 100 µM | MCF7 > 100 µM | SK-MEL-28 > 100 µM | LOX IMVI 41.1 µM | NCI-H23 66.7 µM | NCI-H460 86.3 µM | IGROV-1 > 100 µM | SK-OV-3 > 100 µM | Malme-3M > 100 µM | NCI/ADR-RES > 100 µM | SN12C > 100 µM

Cc1ccc(NC(=O)CC2C(=O)Nc3ccccc3[S+]2[O-])c(C)c1 (stereo not given)
inactive: RXF 393 8.61 µM | 786-0 15.1 µM | HCC 2998 20 µM | CCRF-CEM 11.5 µM | NCI-H226 16.2 µM | HOP-92 13.9 µM | SW-620 5.81 µM | OVCAR-5 53.7 µM | SF-268 24.5 µM | SK-MEL-28 15.8 µM | LOX IMVI 16.4 µM | NCI-H23 14.9 µM | NCI-H460 13 µM | IGROV-1 12.8 µM | SK-OV-3 17.6 µM | Malme-3M 18.4 µM | SN12C 30.5 µM

O=C(NCCC1CN(S(=O)(=O)C(F)(F)F)c2ccccc21)OCc1ccccc1 (stereo not given)
inactive: RXF 393 > 100 µM | 786-0 > 100 µM | HCC 2998 > 100 µM | CCRF-CEM 38.6 µM | HOP-92 77.4 µM | SW-620 > 100 µM | OVCAR-5 > 100 µM | SF-268 > 100 µM | MCF7 > 100 µM | SK-MEL-28 > 100 µM | NCI-H23 > 100 µM | NCI-H460 > 100 µM | IGROV-1 > 100 µM | SK-OV-3 > 100 µM | Malme-3M 12 µM | NCI/ADR-RES > 100 µM

COC(=O)C(CCCN1C(=O)c2ccccc2C1=O)C(=O)OC
inactive: RXF 393 > 100 µM | 786-0 > 100 µM | HCC 2998 > 100 µM | CCRF-CEM > 100 µM | NCI-H226 > 100 µM | HOP-92 > 100 µM | SW-620 > 100 µM | OVCAR-5 > 100 µM | SF-268 > 100 µM | SK-MEL-28 > 100 µM | LOX IMVI > 100 µM | NCI-H23 > 100 µM | NCI-H460 > 100 µM | IGROV-1 > 100 µM | SK-OV-3 > 100 µM | Malme-3M > 100 µM | SN12C > 100 µM

CN1N=C(c2ccccc2)c2cc(Cl)ccc2N=C1N/N=C/c1ccc(N(C)C)cc1
inactive: RXF 393 > 100 µM | 786-0 > 100 µM | HCC 2998 > 100 µM | CCRF-CEM > 100 µM | NCI-H226 58.1 µM | SW-620 > 100 µM | SF-268 > 100 µM | MCF7 > 100 µM | SK-MEL-28 > 100 µM | T47D > 100 µM | NCI-H23 > 100 µM | NCI-H460 > 100 µM | IGROV-1 > 100 µM | SK-OV-3 > 100 µM | NCI/ADR-RES > 100 µM | SN12C > 100 µM

COc1cc(C2c3cc4c(cc3[C@@H](OCCN)[C@H]3COC(=O)C23)OCO4)cc(OC)c1O (stereo not given in full)
inactive: IGROV-1 1.15 µM
active: RXF 393 0.44 µM | 786-0 0.082 µM | HCC 2998 0.671 µM | CCRF-CEM 0.0316 µM | NCI-H226 0.0873 µM | HOP-92 0.082 µM | SW-620 0.179 µM | OVCAR-5 0.644 µM | SF-268 0.159 µM | SK-MEL-28 0.518 µM | LOX IMVI 0.0434 µM | NCI-H23 0.136 µM | NCI-H460 < 0.01 µM | SK-OV-3 0.129 µM | Malme-3M 0.136 µM | SN12C 0.107 µM

COc1cc2c(cc1O)CN1CCC23C=C[C@@H](O)CC13 (stereo not given in full)
inactive: RXF 393 38.2 µM | 786-0 76.4 µM | HCC 2998 56.9 µM | CCRF-CEM 28.2 µM | NCI-H226 76.4 µM | HOP-92 > 100 µM | SW-620 59.6 µM | OVCAR-5 > 100 µM | SF-268 59.6 µM | SK-MEL-28 76.4 µM | LOX IMVI 46.6 µM | NCI-H23 78.7 µM | NCI-H460 62.8 µM | IGROV-1 88.3 µM | SK-OV-3 > 100 µM | Malme-3M > 100 µM | SN12C 46.2 µM

COC(=O)C1C=CCON2CCc3c(n(C)c4ccccc34)C12 (stereo not given)
inactive: RXF 393 > 100 µM | 786-0 > 100 µM | HCC 2998 > 100 µM | CCRF-CEM > 100 µM | NCI-H226 > 100 µM | HOP-92 > 100 µM | SW-620 > 100 µM | OVCAR-5 > 100 µM | SF-268 > 100 µM | SK-MEL-28 > 100 µM | LOX IMVI > 100 µM | NCI-H23 > 100 µM | NCI-H460 > 100 µM | IGROV-1 > 100 µM | SK-OV-3 > 100 µM | Malme-3M > 100 µM | SN12C > 100 µM

COc1ccc(-c2cc(=O)c3c(O)c(O)c(OC)cc3o2)cc1O
inactive: RXF 393 > 100 µM | 786-0 > 100 µM | HCC 2998 > 100 µM | CCRF-CEM > 100 µM | NCI-H226 > 100 µM | HOP-92 > 100 µM | SW-620 > 100 µM | OVCAR-5 > 100 µM | SF-268 84.5 µM | SK-MEL-28 > 100 µM | LOX IMVI > 100 µM | NCI-H23 > 100 µM | NCI-H460 57.9 µM | IGROV-1 > 100 µM | SK-OV-3 > 100 µM | Malme-3M > 100 µM | SN12C > 100 µM

CC1=C2C(=CC(C)(C)[C@@H]2O)C(=O)[C@](C)(O)C12CC2 [ILLUDIN M]
active: RXF 393 0.00329 µM | 786-0 0.01 µM | HCC 2998 < 0.0117 µM | CCRF-CEM 0.0168 µM | NCI-H226 0.0619 µM | HOP-92 0.0193 µM | SW-620 0.013 µM | OVCAR-5 0.0183 µM | SF-268 0.0162 µM | SK-MEL-28 < 0.0209 µM | LOX IMVI 0.0172 µM | NCI-H23 < 0.0126 µM | NCI-H460 0.01 µM | IGROV-1 0.00989 µM | SK-OV-3 0.0197 µM | Malme-3M 0.022 µM | SN12C 0.0236 µM
